Data from US20100222416A1, “Diagnostic Marker and Therapeutic Target for Cancer” (priority 2005, published 2010).

Legend:
Format in all cases: cell-based, human
[1] = tested on: nm23H1 protein (19.6 kDa form coded by nm23H1-B gene); experiment: Two-dimensional PAGE / MALDI of untreated and 5FU treated Colo 205 cell lysate, differentially expressed proteins; conditions: colo 205 cells, 100 μM, 24 hrs, 2D PAGE spot intensity
Procedure: Two-dimensional gel electrophoresis was carried out to identify differentially expressed proteins on treatment with anticancer agents specifically, colon/colorectal cancer cell line (NCCS, Pune, India) was treated with 5-FU (Fivoflu, Dabur Pharma Ltd, India). Untreated cells (cells, not treated with 5FU) were taken as control.
100 μM of 5-FU was added to colo 205 cells seeded at 80% confluence and were harvested after 24 hrs of treatment. Cells were lysed in lysis buffer (Urea 0.54 g/ml, CHAPS 40 mg/ml and DTT 20 mg/ml) and the clear supernatant of treated and untreated (not treated with 5-FU) cell lysate were subjected to isoelectric focusing (Bio-Rad, Protean IEF Cell) on separate 17 cm IPG strips of 4-7 pH range.
Second dimension electrophoresis was subsequently carried out on a 12% SDS-PAGE (Protean II XL electrophoresis system, Bio-Rad). The gel was silver stained for visualization of the protein spots and a digitized image of the 2D gel was generated, using GS 800 Densitometer (Bio-Rad). […]
The protein spots showing more than 2-fold change in intensity in 5-FU treated and untreated samples were further analyzed. […] The dried samples were reconstituted in 10 μl of 0.1% (v/v of 50% acetonitrile) trifluoroacetic acid and peptides were detected on a Matrix-Assisted Laser Desorption/Ionisation-Time of Flight Mass Spectrometry (MALDI-TOF MS) (Voyager-DE STR). […]

nm23H1-B gene [2] = experiment: nm23H1-B mRNA expression in colon cancer cells treated with different anticancer agents (RT-PCR and real time PCR); conditions: HT29 cell line, 24 hrs
Procedure: To study the effect of other anticancer agents on expression of nm23H1-B gene, we took representative of different classes of anticancer agents like alkylating agents (cisplatin), topoisomerase I and II inhibitors (CPT-11), RNA/DNA antimetabolites (5-FU) and antimitotic agents (paclitaxel).
Cells were treated with different anticancer agents for 24 hrs and RNA was isolated.

nm23H1-A [3] = experiment: RT-PCR / real time PCR of nm23H1-A mRNA in 5-FU treated colon cancer cell lines; conditions: Colo 205 cells, 100 μM, 24 hrs
Procedure: (§1) The over expression of nm23H1-B was checked at RNA level by RT-PCR. Colo 205 cells were seeded in 6 well plates at 80% confluence and treated with 100 μM of 5FU for 24 hrs. Subsequently, 1 ml of Trizol reagent (Invitrogen) was added to the cells after a phosphate buffer saline washing for extraction of RNA. The total RNA was extracted using chloroform-isopropyl alcohol method. Finally, the pellet was washed with 70% ethanol and dried on a speed-vac. Control RNA from untreated cells was also extracted in a similar fashion (cells, not treated with 5FU.
(§2) RT-PCR was carried out using one step RT-PCR Kit (Qiagen) according to manufacturer's instructions. 1 μg of RNA was taken and mixed with specific primers of nm23H1A & nm23H1B respectively (Table 1, SEQ ID: 3,4,5). β2-micro globulin (primer sequence, Table 1, SEQ ID: 6,7) was used as a control. The PCR amplified samples were then analyzed on a 1.5% agarose gel.

nm23H1-A [4] = experiment: nm23H1-A mRNA expression in colon cancer cells treated with different anticancer agents (RT-PCR and real time PCR); conditions: HT29 cell line, 24 hrs
nm23H1-B gene [5] = experiment: RT-PCR / real time PCR of nm23H1-B mRNA in 5-FU treated colon cancer cell lines (Colo 205, HT29)
Procedure: as §1, §2

nm23H1-B protein = experiment: Western blot of nuclear and cytosolic fractions of 5FU treated Colo 205 cells; conditions: 100 μM, 24 hours
Procedure: Intracellular localization of both nm23H1-A & nm23H1-B gene was evaluated by Western Blot analysis. Colo 205 cells were treated with 100 μM 5FU for 24 hours and cells were removed from their dishes by gentle scraping. Cells were washed with cold PBS and then resuspended in cold nuclei extraction buffer (320 mM sucrose, 5 mM Mgcl2, 10 mM HEPES, 1% Triton X-100 at pH 7.4) at a ratio of 1 ml per million cells. Nuclear fraction was then pelleted by centrifugation at 2000×g and washed twice with nuclei washing buffer (same as nuclei extraction buffer without Triton X-100). Supernatant was collected separately as a cytosolic fraction. Protein was estimated in both nuclear and cytosolic fraction and equal amount of protein was loaded on a 15% SDS PAGE followed by electrobloting on to a polyvinylidene difluoride membrane. Transferred proteins were incubated with blocking buffer containing 3% bovine serum albumin in phosphate-buffered saline. Polyclonal antibody specific for nm23 protein (Santa Cruz) and peroxidase-labeled goat anti-rabbit IgG (Sigma) were used to probe the target gene.

Compound | up regulation of nm23H1 protein in treated cells as compared to untreated [1] | mRNA levels of nm23H1-B (nm23H1-B gene [2]) | change in nm23H1-A expression level (RNA level) (nm23H1-A [3]) | mRNA levels of nm23H1-A (nm23H1-A [4]) | change in nm23H1-B gene expression (RNA level) (nm23H1-B gene [5]; Colo 205 cells, 100 μM, 24 hrs, RT-PCR) | overexpression of nm23H1-B gene (nm23H1-B gene [5]; colon/colorectal cancer cells) | nm23H1-B protein level (nm23H1-B protein)
O=c1[nH]cc(F)c(=O)[nH]1 [5-FU] | more than 6 fold | Increase | insignificant change | Increase | up regulation | about nine | up-regulation
CC(=O)O[C@H]1C(=O)[C@@]2(C)[C@H]([C@H](OC(=O)c3ccccc3)[C@]3(O)C[C@H](OC(=O)[C@H](O)[C@@H](NC(=O)c4ccccc4)c4ccccc4)C(C)=C1C3(C)C)[C@]1(OC(C)=O)CO[C@@H]1C[C@@H]2O [paclitaxel] | – | Increase | – | Increase | – | – | –
N.N.[Cl][Pt][Cl] [cisplatin] | – | Increase | – | Increase | – | – | –
CCc1c2c(nc3ccc(OC(=O)N4CCC(N5CCCCC5)CC4)cc13)-c1cc3c(c(=O)n1C2)COC(=O)[C@]3(O)CC [CPT11, camptothecin-11] | – | Increase | – | Increase | – | – | –
